Data published in patent US12168026B2, “Methods and compositions for wound healing” (priority 2018, dated 2024).
Structures can show the parent of a compound that is named as a salt.

Assays:
[1] = tested on: P. aeruginosa (ATCC 27853); assay: Antibacterial activity of solutions of Bp, Ag+ or their mixture (viable counts after 24-h incubation); assay type: cell-based; conditions: for CFU decrease of P. aeruginosa: 10^7 CFU in 500 μL HBSS
Method: Viable bacterial counts remaining in suspension following the 24-h incubation were determined by dilution and plating.

[2] = tested on: NIH 3T3 mouse fibroblast cells
Method: The mouse fibroblast cell line NIH-3T3, obtained from ATCC (Manassas, VA) was used for all in vitro cell-based experiments. Cell cultures were maintained at 37° C. and were fed with DMEM growth medium supplemented with 10% calf bovine serum (CBS), 2×10^−[…] (Invitrogen, Carlsbad, CA), and 1% Penicillin Streptomycin. Cells were seeded with 1.0×10^4 cells/well of the 96-well plate and were allowed to attach on the bottom of wells for 24 h. After incubation, cells were washed with […] Phosphate Buffer Saline (PBS); pH 7.4). […] Cells treated with 1% Triton X-100 (Sigma Aldrich, St Louis, MO) were used as controls for complete cell death. For the evaluation of cytotoxicity, the CellTiter 96 AQueous non-radioactive assay (Promega, Germany) was performed. This assay measures the conversion (reduction) of a weakly colored tetrazolium salt of MTS (3-{4,5-dimethylthiazol-2-yl}-5-{3-carboxymethoxyphenyl}-2-{4-sulfophenyl}-2H-tetrazolium) to brightly colored formazan by mitochondrial dehydrogenase of metabolically active (live) cells. The amount of formazan formed varies proportionally with the number of live cells. The wells were rinsed with PBS to remove non-adherent cells and then incubated in a serum-free medium containing 20% MTS reagent for 3 h at 37° C. Then, the absorbance was read in a spectrophotometric plate reader at 490 nm (BioTek Instruments, Winooski, VT).
Briefly, fibroblasts were allowed to attach on the bottom of 96-well plates (within 24-h incubation). […] Following incubation, the viability of the cells was determined by measuring cellular mitochondrial dehydrogenase activity (see Materials and Methods for details).

[3] = tested on: P. aeruginosa (ATCC 27853); conditions: Ag+ 0.4 μg mL^−1; cited from earlier work
rats wounds = conditions: 5 mg mL^−1 at local incisions of rats wounds; cited from earlier work
[4] = Bp 2.5 mg mL^−1; cited from earlier work

Compound	CFU decrease of P. aeruginosa ([1]; Ag+ 0.3 μg mL^−1, 24 h) [log10 CFU]	CFU decrease of P. aeruginosa ([1]; Ag+ 0.4 μg mL^−1, 24 h) [log10 CFU]	toxicity toward fibroblasts ([2]; Ag+ 0.4 μg mL^−1 and up to 1.2 μg mL^−1, 24 h)	effect on viability of mammalian cells such as fibroblasts ([2]; Ag+ 1.7 μg mL^−1 and Bp 0.25 mg mL^−1)	CFU decrease of P. aeruginosa (reported) [3] [log10 CFU]	antimicrobial activity ([1]; Bp 0.5 mg mL^−1, 24 h)	collagen production (rats wounds)	inflammation (rats wounds)	antimicrobial activity (reported) [4]	cytotoxicity limit (concentration of agent that caused a ~50% decrease in viability of cells) ([2]; mouse, 24 h, pH 7.4) [µg/mL]
O=[N+]([O-])[O-].[Ag+] [Ag^+, Silver nitrate]	3	6	not to cause significant toxicity	do not significantly reduce the viability	6	–	–	–	–	–
CCCCN1CCCCC1C(=O)Nc1c(C)cccc1C (stereo not shown) [Bp, bupivacaine hydrochloride monohydrate]	–	–	–	–	–	does not exhibit antimicrobial activity	decrease collagen production	significant inflammation	exhibit antimicrobial activity	1.2
